Reference: paper PMC9122897, “SHR1032, a novel STING agonist, stimulates anti-tumor immunity and directly induces AML apoptosis” (Scientific Reports, 2022)

Experiments:
[1] = system: THP1-STING-R232 cells; assay: IFNβ ELISA; type: cell-based, human; settings: THP1-STING-R232, 5 h, vs ADU-S100
Procedure: (§1) Figure 2 SHR1032 specifically and potently activates STING signaling pathway. IRF luciferase reporter assays in (a) THP1-STING-R232, THP1-STING-H232, THP1-STING-HAQ, and THP1-STING-KO cells. Cells were stimulated for 24 h with the indicated STING compounds and assessed for luciferase activity. IFNβ production and activation of cGAS-STING signaling pathway in (b) human THP1-STING-R232, human PBMCs from a donor homozygous for the R232 variant, cynomolgus PBMC, and mouse RAW164.7 macrophage cells were treated with STING agonists for 5 h. IFNβ in media was quantified by human or mouse ELISA kits respectively. (c) THP1-STING-R232 cells and mouse RAW164.7 macrophage cells were stimulated with 40 µM of ADU-S100 or 10 µM of SHR1032 for the indicated time points. The amount of pTBK1, total TBK1, STING and α-tubulin was measured by western blotting.
(§2) Human and Cynomolgous PBMC’s were thawed and spun down in Lymphocyte media (ZENBIO) and resuspended in media to 1.5 x 10^6 cells/ml density. […] Human and monkey IFN-β protein concentration was measured using human IFN-β Quantikine ELISA Kits (R&D Systems) per manufacture’s protocol. Mouse IFN-β was measured using mouse IFN-β Quantikine ELISA Kits (R&D Systems) per manufacture’s protocol. Mouse TNFα, IFN-β and IL-6 in the tumor lysates and plasma was measured by Quantikine ELISA Kits (R&D Systems) per manufacture’s protocol.

[2] = system: mouse RAW164.7 macrophage cells; assay: IFNβ ELISA; type: cell-based; settings: 5 h, vs ADU-S100
Procedure: as §1, §2

[3] = system: human PBMCs; assay: IFNβ ELISA; type: cell-based; settings: 5 h, vs ADU-S100
Procedure: as §1, §2

[4] = target: T1, human STING (Homo sapiens, UniProt Q86WV6); assay: Thermal shift assay; type: binding; settings: human STING protein 5 uM; ligand bound vs apo
T1 construct: made in house; host or cells: E. coli
T1 sequence (Q86WV6 155-341 limits assumed): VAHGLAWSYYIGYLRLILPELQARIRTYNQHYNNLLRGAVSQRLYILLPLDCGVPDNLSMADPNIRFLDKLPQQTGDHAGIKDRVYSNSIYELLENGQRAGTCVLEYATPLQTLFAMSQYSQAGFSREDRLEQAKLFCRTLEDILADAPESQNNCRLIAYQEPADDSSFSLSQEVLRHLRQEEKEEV
Description: We sought to develop small molecule compounds with increased STING agonist activity against human STING. GSK reported a series of non-CDN small molecules, represented by compound 1[13], with good human STING agonistic activity. Based on our molecular modeling analysis, along with the reported CDN-STING crystal structures, we designed a novel series of fused tricyclic heterocycle compounds and analyzed their binding to human STING with thermal shift assays and the potency in activation of STING signaling with a reporter cellular assay (Supplementary Table S1). Thermal shift assays measure the difference between apo STING and ligand bound STING in the inflection point at which 50% of protein is thermally unfolded (ΔTm). […] The ability of compounds to activate the IRF reporter gene in the THP1 cells was also evaluated.
The melting temperature (Tm) of human STING was determined by calculating the temperature at the inflection point of the thermal melt curve generated on a Roche LightCycler 480 using 384 plate format and 465–590 nm filter set. […] Florescence was measured while ramping the plate temperature from 20 to 95 °C and the resulting data was processed using ROCHE data analysis software. Delta Tms were calculated by subtracting the Tm of untreated protein from ligand treated samples. […]

[5] = system: MOLM-16 cells; assay: IFNβ ELISA; type: cell-based, human; settings: MOLM-16, 5 hrs, compared to THP1 cells
Procedure: (§3) Human and Cynomolgous PBMC’s were thawed and spun down in Lymphocyte media (ZENBIO) and resuspended in media to 1.5 x 10^6 cells/ml density. Mouse RAW 264.7 cells were detached from the flask and resuspended in media to 1.5 x 10^6 cells/ml density. Then, 100 µl of media containing the cells was added to each well of a 96-well plate containing compound in 50 µl of media. Plates were incubated for 5 h at 37 °C and supernatant was collected for ELISA analysis. Human and monkey IFN-β protein concentration was measured using human IFN-β Quantikine ELISA Kits (R&D Systems) per manufacture’s protocol. Mouse IFN-β was measured using mouse IFN-β Quantikine ELISA Kits (R&D Systems) per manufacture’s protocol. Mouse TNFα, IFN-β and IL-6 in the tumor lysates and plasma was measured by Quantikine ELISA Kits (R&D Systems) per manufacture’s protocol.
(§4) Figure S2. IFNβ measurement in MV4-11, MOLM-16 and THP1-STING-R232 cells treated with SHR1032 for 5 hrs.

[6] = system: MV4-11 cells; assay: IFNβ ELISA; type: cell-based, human; settings: MV4-11, 5 hrs, compared to THP1 cells
Procedure: as §3, §4

[7] = system: MOLM-16 cells; assay: Western blot of TBK1 and STING phosphorylation; type: cell-based, human; settings: MOLM-16, 1 µM
Procedure: (§5) (a–d) AML cells were treated with STING agonists and standard of care cytarabine, and cell viability was measured by CellTiter Glo in (a) THP1-STING-R232, (b) THP1-STING-KO, (c) MV-4-11 and (d) MOLM-16. (e) MV-4-11, MOLM-16 and THP1-STING-KO cells were stimulated with 1 µM of SHR1032 for the indicated time points. The amount of pTBK1, total TBK1, pSTING, total STING and α-tubulin was measured by Western blot. pSTING phosphorylated STING. THP1 reporter cells were treated for 24 h with a total of 100 k cells and 150 ul media in each well a 96-well plate. Following the incubation, 20 µl of supernatant was transferred to an opaque 96 well ½ area plate and incubated for 30 s with 50 µl of QUANTI-Luc substrate (InvivoGen) per manufacturer’s instructions. Luminescence signal was measured using Tecan infinite M1000. EC50 values were calculated using non-linear regression analysis of GraphPad Prism. Cell growth was monitored by CellTiter-Glo Luminescent Cell Viability Assay (Promega) per manufacture’s protocol. GI50 values were calculated using non-linear regression analysis of GraphPad Prism. Cell lysates for western blotting were made in RIPA buffer (Sigma) with Halt Protease and Phosphatase Inhibitors (Thermo Scientific). Antibodies against pSTING, TBK1, pTBK1 and tubulin were purchased from Cell Signaling Technologies, and anti-STING was purchased from Protein Tech.

[8] = system: MV4-11 cells; assay: Western blot of TBK1 and STING phosphorylation; type: cell-based, human; settings: MV4-11, 1 µM
Procedure: as §5

[9] = system: THP1-STING-KO cells; assay: Western blot of TBK1 and STING phosphorylation; type: cell-based, human; settings: 1 µM
Procedure: as §5

[10] = system: THP1-STING-R232 cells; assay: CellTiter-Glo cell growth; type: cell-based, human; settings: Homo sapiens
Procedure: as §5

[11] = system: THP1-STING-KO cells; assay: CellTiter-Glo cell growth; type: cell-based, human
Procedure: as §5

Thermal shift ∆Tm [4]: 10.7 °C
GI50 [10]: 23 nM
Compound: CCn1nc(C)cc1C(=O)Nc1nc2cc(C(N)=O)cc(OC)c2n1CCC[C@H]1COc2cc(C(N)=O)cc3nc(NC(=O)c4cc(C)nn4CC)n1c23 [SHR1032]
IFNβ induction [1]: much higher level of IFNβ
mouse IFNβ production [2]: lower than that with that of ADU-S100, but still detectable
human IFNβ production [3]: much greater amount of human IFNβ than ADU-S100
IFNβ production [5]: produced IFNβ, but with a level much lower than that in THP1 cells
IFNβ production [6]: produced IFNβ, but with a level much lower than that in THP1 cells
TBK1 and STING phosphorylation [7]: induced TBK1 and STING phosphorylation
TBK1 and STING phosphorylation [8]: induced TBK1 and STING phosphorylation
TBK1 and STING phosphorylation [9]: not in THP1-STING-KO cells
cell growth inhibition [11]: not detectable
